Data reported in ChEMBL document CHEMBL1201862, “PubChem BioAssay data set” (2004).
The source made the active and inactive calls.

Legend:
[1] = target: Beta-lactamase (Pseudomonas aeruginosa, UniProt Q79MP6);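 further: biochemical dose-response test of metallo-beta-lactamase enzyme inhibition, read out by epi-absorbance; purified recombinant IMP-1 metallo-beta-lactamase with nitrocefin as substrate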
[2] = target: Beta-lactamase (Salmonella choleraesuis (strain SC-B67), UniProt Q5J463)
[3] = target: T1, Small ubiquitin-related modifier 1 (Homo sapiens, UniProt P63165); test: SUMO1 protein interaction blockers, potency – biochemical, fluorescence polarization, uHTS hits, dose response (AID 624382); format: functional; conditions: read-out: IC50_Mean
T1 sequence (P63165 whole entry): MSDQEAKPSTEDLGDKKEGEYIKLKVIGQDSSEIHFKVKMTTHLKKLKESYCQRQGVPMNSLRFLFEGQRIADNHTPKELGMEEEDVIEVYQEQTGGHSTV

[4] = target: T1, Small ubiquitin-related modifier 1; test: SUMO1 protein-protein binding blockers, potency – biochemical, FRET, dose response (AID 624383); format: functional; conditions: read-out: IC50_Mean
[5] = target: Adenosylmethionine-8-amino-7-oxononanoate aminotransferase (Mycobacterium tuberculosis, UniProt P9WQ81); test: Mycobacterium tuberculosis BioA enzyme inhibitor Measured in Biochemical System Using Plate Reader - 2163-02_Inhibitor_Dose_CherryPick_Activity.; format: functional, Mycobacterium tuberculosis UT205
Adenosylmethionine-8-amino-7-oxononanoate aminotransferase, sequence (P9WQ81 whole entry): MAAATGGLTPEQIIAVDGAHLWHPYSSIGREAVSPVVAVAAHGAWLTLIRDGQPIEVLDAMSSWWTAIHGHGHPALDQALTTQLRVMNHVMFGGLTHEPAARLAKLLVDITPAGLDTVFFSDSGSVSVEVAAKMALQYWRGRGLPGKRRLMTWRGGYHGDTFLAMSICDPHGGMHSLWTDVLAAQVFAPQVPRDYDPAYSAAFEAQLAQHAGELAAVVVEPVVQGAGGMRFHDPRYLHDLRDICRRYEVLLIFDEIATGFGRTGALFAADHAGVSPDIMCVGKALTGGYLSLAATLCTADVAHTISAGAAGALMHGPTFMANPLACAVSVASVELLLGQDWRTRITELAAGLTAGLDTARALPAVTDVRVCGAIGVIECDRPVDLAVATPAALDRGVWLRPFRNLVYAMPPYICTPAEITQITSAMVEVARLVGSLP

[6] = target: T2, Leucine aminopeptidase (Plasmodium falciparum 3D7, UniProt Q8IL11); test: P. falciparum M17LAP inhibitors, primary screen, biochemical, fluorogenic H-Leu-NHMec substrate, 1536-well (AID 1619); format: functional
T2 sequence (Q8IL11 whole entry): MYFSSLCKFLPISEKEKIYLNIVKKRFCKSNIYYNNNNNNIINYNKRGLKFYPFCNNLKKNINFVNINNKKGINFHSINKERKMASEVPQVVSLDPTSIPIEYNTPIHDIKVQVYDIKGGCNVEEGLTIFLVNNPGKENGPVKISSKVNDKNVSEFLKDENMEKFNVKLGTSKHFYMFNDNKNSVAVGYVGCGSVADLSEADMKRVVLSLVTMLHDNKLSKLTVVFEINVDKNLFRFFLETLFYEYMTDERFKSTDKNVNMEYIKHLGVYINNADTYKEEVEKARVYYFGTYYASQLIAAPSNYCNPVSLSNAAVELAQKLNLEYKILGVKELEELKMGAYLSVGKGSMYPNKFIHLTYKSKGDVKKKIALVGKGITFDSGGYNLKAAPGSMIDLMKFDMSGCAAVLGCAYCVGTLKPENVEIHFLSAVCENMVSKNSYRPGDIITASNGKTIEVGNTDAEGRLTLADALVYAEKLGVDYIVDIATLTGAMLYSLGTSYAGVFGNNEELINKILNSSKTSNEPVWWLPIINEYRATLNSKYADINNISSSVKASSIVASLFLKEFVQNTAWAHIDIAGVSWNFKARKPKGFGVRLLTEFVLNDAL

[7] = target: T3, Corticotropin-releasing factor receptor 2/Corticotropin-releasing factor-binding protein (Homo sapiens, UniProt P24387+Q13324); test: Dose Response confirmation of uHTS hits for small molecule antagonists of the CRF-binding protein and CRF-R2 receptor complex.; format: functional; conditions: read-out: IC50_Mean
T3 sequence (Q13324 whole entry): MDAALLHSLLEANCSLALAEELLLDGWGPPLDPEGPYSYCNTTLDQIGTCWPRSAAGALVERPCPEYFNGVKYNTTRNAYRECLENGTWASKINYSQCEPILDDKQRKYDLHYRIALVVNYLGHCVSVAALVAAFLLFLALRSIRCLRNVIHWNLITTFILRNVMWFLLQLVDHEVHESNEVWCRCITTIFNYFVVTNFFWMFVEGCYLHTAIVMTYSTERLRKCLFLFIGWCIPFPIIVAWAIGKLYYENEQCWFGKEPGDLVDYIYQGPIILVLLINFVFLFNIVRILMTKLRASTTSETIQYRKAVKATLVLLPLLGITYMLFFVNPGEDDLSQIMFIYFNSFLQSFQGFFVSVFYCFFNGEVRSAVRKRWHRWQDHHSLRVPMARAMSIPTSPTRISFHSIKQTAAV
T3 sequence (P24387 whole entry): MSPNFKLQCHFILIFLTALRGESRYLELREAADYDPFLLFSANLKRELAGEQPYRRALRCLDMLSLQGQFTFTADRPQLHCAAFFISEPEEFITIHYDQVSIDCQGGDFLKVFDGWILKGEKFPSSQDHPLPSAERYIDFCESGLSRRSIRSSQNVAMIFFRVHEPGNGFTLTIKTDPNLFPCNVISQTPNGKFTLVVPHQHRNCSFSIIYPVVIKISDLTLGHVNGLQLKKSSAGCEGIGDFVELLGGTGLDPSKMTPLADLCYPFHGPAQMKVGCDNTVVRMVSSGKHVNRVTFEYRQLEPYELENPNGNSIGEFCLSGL

[8] = target: T3, Corticotropin-releasing factor receptor 2/Corticotropin-releasing factor-binding protein; test: activators of CRF receptor 2 with binding protein – uHTS hits, confirmation (AID 602473); format: functional; conditions: read-out: EC50_Mean
[9] = blockers of CRF-binding protein–CRF-R2 complex – cell-based, uHTS hits, 384-well, dose response (AID 651639); format: functional, Homo sapiens; conditions: read-out: IC50_Mean
[10] = target: Photoreceptor-specific nuclear receptor (Homo sapiens, UniProt Q9Y5X4); format: functional, cell-based;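 further: CHO-S cells with Gal4-NCOR and VP16-NR2E3 two-hybrid luciferase reporter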
Photoreceptor-specific nuclear receptor, sequence (Q9Y5X4 whole entry, the tested form may be a part): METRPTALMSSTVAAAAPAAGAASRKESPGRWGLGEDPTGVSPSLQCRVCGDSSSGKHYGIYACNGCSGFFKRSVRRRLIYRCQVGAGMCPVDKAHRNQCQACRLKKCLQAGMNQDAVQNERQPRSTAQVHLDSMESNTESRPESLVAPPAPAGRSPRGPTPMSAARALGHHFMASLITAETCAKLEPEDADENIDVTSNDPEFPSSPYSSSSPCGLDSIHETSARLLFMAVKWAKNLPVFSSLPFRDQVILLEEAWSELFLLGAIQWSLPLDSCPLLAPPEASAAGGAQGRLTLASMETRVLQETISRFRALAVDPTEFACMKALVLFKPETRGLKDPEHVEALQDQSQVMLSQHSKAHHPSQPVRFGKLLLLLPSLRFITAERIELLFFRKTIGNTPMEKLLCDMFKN

[11] = Luminescence Cell-Based Dose Retest to Confirm Inhibitors of Cancer Stem Cells. [Related pubchem assays (depositor defined):AID2717, AID2721]; format: functional; conditions: Homo sapiens
[12] = target: T4, Microphthalmia-associated transcription factor (Homo sapiens, UniProt O75030); test: reducers of TRPM1 reporter luminescence, concentration series – cell-based, SK-MEL-5, cherry-picked, set 3, MITF inhibitor project, dose response (AID 493073); format: functional;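 further: SK-MEL-5 melanoma cells with luciferase driven by the MITF target TRPM1 promoter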
T4 sequence (O75030 whole entry): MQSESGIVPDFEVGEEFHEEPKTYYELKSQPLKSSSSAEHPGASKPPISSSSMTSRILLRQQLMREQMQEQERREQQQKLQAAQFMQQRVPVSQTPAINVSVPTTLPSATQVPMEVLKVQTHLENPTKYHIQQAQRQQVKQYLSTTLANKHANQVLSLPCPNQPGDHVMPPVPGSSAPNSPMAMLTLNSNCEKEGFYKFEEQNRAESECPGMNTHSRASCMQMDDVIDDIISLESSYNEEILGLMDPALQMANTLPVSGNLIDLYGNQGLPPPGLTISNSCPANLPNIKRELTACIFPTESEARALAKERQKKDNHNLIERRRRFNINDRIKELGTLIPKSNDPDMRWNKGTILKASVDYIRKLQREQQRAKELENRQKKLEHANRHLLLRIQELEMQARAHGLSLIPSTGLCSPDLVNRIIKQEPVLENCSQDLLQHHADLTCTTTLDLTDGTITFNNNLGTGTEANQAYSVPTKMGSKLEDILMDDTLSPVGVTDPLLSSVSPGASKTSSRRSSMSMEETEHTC

[13] = Fluorescence-based cell-based high throughput dose response assay for inhibitors of the interaction of nucleotide-binding oligomerization domain containing 2 (NOD2) and the receptor-interacting serine-threonine kinase 2 (RIPK2).; format: functional; conditions: Homo sapiens
[14] = activation of miR-122 Renilla sensor silencing – cell-based, Huh7 psiCHECK-miR122, Renilla luciferase, cherry-picked, dose response (AID 651956); format: functional;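 further: huh7 hepatoma cells stably carrying a psiCHECK-2 miR-122 sensor plasmid; renilla luciferase signal reporting endogenous miR-122 activity after 48 h compound exposure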
[15] = target: Paired box protein Pax-8 (Homo sapiens, UniProt Q06710); test: PAX8 transcriptional activity inhibition in RMG-I – RMG-I cells, luciferase, cherry-pick, dose response (AID 687027); format: functional, cell-based;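 further: luciferase reporter driven by Pax8 target thyroperoxidase promoter measured by SteadyGlo luminescence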
Paired box protein Pax-8, sequence (Q06710 whole entry): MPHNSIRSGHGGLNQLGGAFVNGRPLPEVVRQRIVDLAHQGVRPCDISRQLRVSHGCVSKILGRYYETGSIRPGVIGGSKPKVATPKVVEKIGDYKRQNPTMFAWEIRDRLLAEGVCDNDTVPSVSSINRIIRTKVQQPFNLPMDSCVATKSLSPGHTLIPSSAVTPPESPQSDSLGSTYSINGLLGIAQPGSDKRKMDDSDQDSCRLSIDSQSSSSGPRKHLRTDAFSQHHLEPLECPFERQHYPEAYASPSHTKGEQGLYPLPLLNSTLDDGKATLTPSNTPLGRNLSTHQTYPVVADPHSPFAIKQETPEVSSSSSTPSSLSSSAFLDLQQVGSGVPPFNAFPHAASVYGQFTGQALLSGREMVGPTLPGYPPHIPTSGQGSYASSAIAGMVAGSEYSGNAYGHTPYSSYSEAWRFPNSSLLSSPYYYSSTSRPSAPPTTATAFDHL

[16] = target: T5, Caspase-6 (Homo sapiens, UniProt P55212); test: inhibition of CASP6 peptide cleavage – biochemical, VEID-R110 fluorescence, cherry-pick, dose response (AID 720632)
T5 sequence (P55212 whole entry): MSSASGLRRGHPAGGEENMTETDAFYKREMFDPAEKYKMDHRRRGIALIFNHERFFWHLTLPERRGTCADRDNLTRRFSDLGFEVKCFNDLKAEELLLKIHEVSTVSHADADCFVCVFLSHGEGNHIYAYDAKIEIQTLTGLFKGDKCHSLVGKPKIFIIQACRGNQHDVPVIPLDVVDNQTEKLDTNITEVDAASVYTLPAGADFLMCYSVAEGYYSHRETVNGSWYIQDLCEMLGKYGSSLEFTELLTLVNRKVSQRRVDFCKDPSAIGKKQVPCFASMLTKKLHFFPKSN

[17] = general mammalian cell viability loss – inhibitor set, cherry-pick, set 2, cytotoxicity control for miR-122 modulator project, dose response (AID 720697); format: functional, cell-based
[18] = general mammalian cell viability loss – activator set, cherry-pick, cytotoxicity control for miR-122 modulator project, dose response (AID 720690); format: functional, cell-based;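 further: HEK293T human cells scored for general mammalian cytotoxicity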
[19] = target: T6, Low molecular weight phosphotyrosine protein phosphatase (Homo sapiens, UniProt P24666); format: functional; conditions: read-out: IC50_Mean
T6 sequence (P24666 whole entry): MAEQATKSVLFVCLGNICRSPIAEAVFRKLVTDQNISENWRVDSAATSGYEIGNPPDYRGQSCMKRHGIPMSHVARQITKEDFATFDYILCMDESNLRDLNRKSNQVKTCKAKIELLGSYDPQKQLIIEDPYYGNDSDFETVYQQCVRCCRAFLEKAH

[20] = target: T6, Low molecular weight phosphotyrosine protein phosphatase; format: functional; conditions: read-out: IC50_Mean; remark: listed apart in the source

Beta-lactamase (Pseudomonas aeruginosa, UniProt Q79MP6), sequence (Q79MP6 whole entry): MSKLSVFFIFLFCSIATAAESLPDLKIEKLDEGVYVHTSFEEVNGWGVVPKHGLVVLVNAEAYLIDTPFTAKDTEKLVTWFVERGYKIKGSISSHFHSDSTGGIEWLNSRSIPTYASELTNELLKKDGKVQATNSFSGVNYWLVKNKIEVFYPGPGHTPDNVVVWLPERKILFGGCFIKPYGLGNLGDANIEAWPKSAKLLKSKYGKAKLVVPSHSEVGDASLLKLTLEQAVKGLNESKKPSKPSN
Beta-lactamase (Salmonella choleraesuis (strain SC-B67), UniProt Q5J463), sequence (Q5J463 whole entry): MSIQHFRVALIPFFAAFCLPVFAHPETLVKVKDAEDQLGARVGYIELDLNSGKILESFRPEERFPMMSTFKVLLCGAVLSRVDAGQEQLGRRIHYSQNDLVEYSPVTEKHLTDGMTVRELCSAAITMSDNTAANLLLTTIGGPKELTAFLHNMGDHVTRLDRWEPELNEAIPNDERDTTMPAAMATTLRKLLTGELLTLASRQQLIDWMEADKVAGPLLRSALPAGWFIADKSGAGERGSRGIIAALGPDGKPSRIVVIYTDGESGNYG

Q: With `COc1ccccc1-c1csc(-n2ncc(C#N)c2N)n1` as the molecule, how does the IC50 [1] read?
A: The IC50 was > 59.6 µM (inactive).

Q: What about the IC50 [2] of the same molecule?
A: Its IC50 is > 59.6 µM (inactive).

Q: What about the IC50 [3] of the same molecule?
A: The IC50 was > 66.6 µM (inactive).

Q: And the IC50 [4]?
A: Its IC50 is 6.71 µM (active).

Q: For `CCc1nn(CC(=O)N2CCN(Cc3ccc4c(c3)OCO4)CC2)c(=O)c2cc3occc3n12`, which AC50 [5] is on record?
A: The AC50 was 1.01 µM (active).

Q: Which results are given for `Cc1ccc(S(=O)(=O)N(CC(=O)Nc2ccccc2C(=O)O)c2cccc(Cl)c2C)cc1`?
A: IC50 [6]: 24.7 µM (active); IC50 [7]: 41.1 µM (active); EC50 [8]: 41.2 µM (active); IC50 [9]: 15.6 µM (active); IC50 [10]: 2.15 µM (active)

Q: What does the source list for `Cc1ccc(NC(=O)CN(C)C(=O)Cn2ncc(Cl)c(Cl)c2=O)cc1`?
A: AC50 [11]: 4.54 µM (active); AC50 [12]: 9.16 µM (active); IC50 [13]: 4.34 µM (active); AC50 [14]: 4.2 µM (active); AC50 [15]: 3.57 µM (active); AC50 [16]: 5.9 µM (active); AC50 [17]: 8.04 µM (active); AC50 [18]: 3.57 µM (active)

Q: Which IC50 [19] does the source give for `O=C(CN1CCN(c2ccccc2F)CC1)c1ccc2cc[nH]c2c1` here?
A: The IC50 was 5.49 µM (active).

Q: What about the IC50 [20] of the same molecule?
A: The IC50 was 14.6 µM (active).

Q: Which AC50 [5] does the source give for `Cc1c(OC(C)C(=O)NCc2ccccn2)ccc2c3c(c(=O)oc12)CCC3` (stereo unspecified) here?
A: Its AC50 is 6.05 µM (active).
